The numbers were not newly measured in patent US12133847B2, “Pharmaceutical composition and preparation method therefor” (Shenzhen Pharmacin Co., Ltd., priority 2014, dated 2024), which cites them from elsewhere.

For series [1] the following is noted: in vivo.

Where a name gives a salt, the structure may show the parent alone. Read-outs that look alike come from different tables or passages of the source.

Turning to `CCCCCCOC(=O)NC(=N)c1ccc(NCc2nc3cc(C(=O)N(CCC(=O)OCC)c4ccccn4)ccc3n2C)cc1` [Dabigatran etexilate mesylate, dabigatran etexilate mesylate], the Solubility result runs as follows: (in acidic media) “high solubility”; (in neutral and alkaline media) “very poor solubility”; (physiological conditions, in the intestine near pH 7.0) “substantially insoluble”.

As to `[H]/N=C(/N)c1ccc(NCc2nc3cc(C(=O)N(CCC(=O)O)c4ccccn4)ccc3n2C)cc1` [dabigatran], in series [1], the Oral bioavailability result is “very low oral bioavailability”.
